Experimental data published in article PMC9959589, “Use of a Longer Aglycon Moiety Bearing Sialyl α(2→3) Lactoside on the Glycopolymer for Lectin Evaluation” (Polymers, 2023).

Biological target: T1, Wheat germ agglutinin (WGA)
T1 construct: gene WGA1; commercial native lectin from wheat germ (J-Oil Mills)
Experiment: intrinsic tryptophan fluorescence titration, Hill plot
Type: binding, Triticum aestivum
Settings: 0.65 μM WGA, 50 mM Tris-HCl, 1.25 M NaCl, 25 mM CaCl2, pH 7.5, 4 °C; excitation 295 nm, emission 348 nm (buffer as given for 10b, same procedure); read-out: K a / (×10^5 M^-1) (converted)
Excerpt: intrinsic tryptophan fluorescence titration, Hill plot on Wheat germ agglutinin (WGA)

Kd: 31.2 µM
Structure (SMILES): C=CC(=O)NCCOCCOCCOCCOCCOCCOCCOCCOCCO[C@@H]1O[C@H](CO)[C@@H](O[C@@H]2O[C@H](CO)[C@H](O)[C@H](O[C@]3(C(=O)O)C[C@H](O)[C@@H](NC(C)=O)[C@H]([C@H](O)[C@H](O)CO)O3)[C@H]2O)[C@H](O)[C@H]1O [compound 9, 28-Oxo-3,6,9,12,15,18,21,24-octaoxa-27-azatriacont-29-en-1-yl (5-Acetamido-3,5-dideoxy-D̿ -glycero-α-D̿ -galacto-2-nonulopyranosyl)-(2→3)-O-(β-D̿ -galactopyranosyl)-(1→4)-β-D̿ -glucopyranoside]
